Data taken from patent US12440550B2 (priority 2015, dated 2025).

Columns and labels:
Calu-3 cells [1] = type: cell-based, human
Calu-3 cells [2] = tested on: Calu-3 cells

Compound | increase in transduction efficiency with respect to virus formulated in saline (factor) (Calu-3 cells [1]) | cell lysis (Calu-3 cells [2]) [%]
OC[C@@H](O)[C@@H](O)[C@H](O)[C@H](O)CO [mannitol] | 1.61 | –
OC[C@H]1O[C@@](CO)(O[C@H]2O[C@H](CO)[C@@H](O)[C@H](O)[C@H]2O)[C@@H](O[C@H]2O[C@H](CO)[C@@H](O)[C@H](O)[C@H]2O)[C@@H]1O [melezitose] | 1.51 | –
CCCCCCCCCCCCO[C@@H]1O[C@H](CO)[C@@H](O[C@H]2O[C@H](CO)[C@@H](O)[C@H](O)[C@H]2O)[C@H](O)[C@H]1O [nDMPS, N-dodecyl-β-D-maltopyranoside, reference compound] | second most efficacious formulation | > 80
OC[C@H]1O[C@H](OC[C@H]2O[C@H](O[C@]3(CO)O[C@H](CO)[C@@H](O)[C@@H]3O)[C@H](O)[C@@H](O)[C@@H]2O)[C@H](O)[C@@H](O)[C@H]1O [raffinose] | did not significantly enhance transduction | –
OC[C@@H](O)[C@@H](O)[C@H](O)[C@@H](O)CO [sorbitol] | did not significantly enhance transduction | –
OC[C@H]1O[C@@](CO)(O[C@H]2O[C@H](CO)[C@@H](O)[C@H](O)[C@H]2O)[C@@H](O)[C@@H]1O [sucrose] | 1.96 | –
